Results taken from a melting point compilation (Tetko et al.; mined from patent text by program, amines drawn as free bases though some values may be those of a salt).

Point of comparison: `CCOC(=O)C1=C(N)NC(C)=C(C(=O)O)C1c1ccccc1-c1ccccc1` (stereo unspecified), melting point 182 °C. Against it:
- c1ccc(COc2ccc(-c3cc4ccccc4[nH]3)cc2)cc1 — higher, 251 °C
- O=c1[nH]c2ncc(-c3ccc(-c4n[nH]c(CO)n4)cc3)nc2n1CC1CCOCC1 — higher, 258 to 260 °C
- COc1ccc(Cn2cnc3c(Cl)nc(C(F)(F)F)nc32)cc1 — lower, 104 to 106 °C
- CCCCCCCCc1nc2c(N)nc3ccccc3c2n1CCOCc1ccccc1 — lower, 110 to 111 °C
- CC(=O)c1ccc(-c2ccc(F)cc2Br)cc1 — lower, 70 to 72 °C
- C=CCOC(=O)[C@@H]1CC[C@@H]2CN1C(=O)N2OCc1ccccc1 — lower, 60 to 62 °C
- Cn1cccc1C(=O)c1ccc2ccccc2c1 — lower, 108 to 110 °C
- CCOCc1nc2c(N)nc3ccccc3c2n1CCCc1cc(-c2ccccc2)no1 — lower, 171 to 172 °C
- CC(=O)c1c(-c2ccncc2)sc(Cl)c1C — lower, 60 to 61 °C
- CCOC(=O)c1cccc(-c2nc(-c3cc(C)oc3C)cs2)c1 — lower, 100 to 101 °C
- CN1CCN(c2cc(Cl)cc3c2c(=O)n(Cc2ccccc2Br)c(=O)n3Cc2ccccc2)CC1 — lower, 91 to 93 °C
- COc1ccc2c(c1)CC(=O)NC2c1ccccc1Cl (stereo unspecified) — higher, 203 to 205 °C
- Cc1ccc(N2C(=O)N(CC(=O)O)C(=O)C23CCCCC3)cc1 — higher, 206 °C
- CC1CC(Nc2nnc(-c3cccc(Oc4cccc(C(F)(F)F)c4)c3)s2)CC(C)(C)C1 (stereo unspecified) — lower, 101 to 102 °C
- Cn1c(CC#N)ccc1C(=O)c1ccc([N+](=O)[O-])cc1 — lower, 167 to 169 °C
- CC(C)c1cc(C(C)C)c(S(=O)(=O)n2ccc3ccccc32)c(C(C)C)c1 — lower, 131 to 133 °C
- O=C(c1nc2ccc(O)cc2[nH]1)N1CCC(=Cc2ccccc2)CC1 — lower, 148 °C
- O=C1CN(c2ccccc2)C(=O)N1C1CCCCC1 — higher, 196 °C
- C#CC[C@H](c1nc2cc(Cl)ccc2c(=O)n1Nc1ccccc1)N(CCCN)C(=O)c1cc2ccccc2s1 — lower, 103 to 106 °C
- ClC(=NNc1ccccc1)c1ccc(Br)cc1 — lower, 152 to 153 °C
- COc1cccc2c1OCN(CCc1ccccc1)C2 — lower, 63 to 66 °C
- O=C1Nc2ccc(C(c3ccc(Cl)cc3)n3ccnc3)cc2C(c2cccc(Cl)c2)N1 (stereo unspecified) — lower, 177 °C
- Cc1cc2cc(CN3CCC(CC(=O)N(C)C)CC3)cnc2cc1NC(=O)c1ccc(-c2ccc(F)cc2)cc1 — higher, 219 °C
- O=C1OCCC1N1C(=O)c2cccc3cccc(c23)C1=O (stereo unspecified) — higher, 310 to 312 °C
- CC(=O)OC[C@H](c1ccccc1)N1C(=O)C=CC1=O — lower, 131 to 132 °C
- CC(=O)Oc1cc(C(C)C)ccc1C1(OC(C)=O)C(=O)c2ccccc2C1=O — lower, 136 to 137 °C
- c1ccc(-c2cccc3c4c([nH]c23)CCNCC4)cc1 — lower, 143 to 174 °C
- CCCCOP(=O)(C/C=C/CC1(C(=O)NCCC)c2cc(F)ccc2-c2ccc(F)cc21)OCCCC — lower, 142 to 146 °C
- O=c1[nH]c2ncc(-c3cncnc3)nc2n1CC1CCCCC1 — higher, > 260 °C
- CCC=C1SC(=O)N(CCCCOc2cccn3ccnc23)C1=O — lower, 70 to 71 °C
- Cn1c([N+](=O)[O-])cnc1C1=NO[C@@H]2CCCCCCCCCC[C@@H]12 (relative stereo) — lower, 121 to 122 °C
- COc1c(C(C)=O)c(OC2SCC(O)C(O)C2O)c(OC)c2occc12 (stereo unspecified) — higher, 207 to 209 °C
- OC1(C2CCNCC2)CC(c2ccc(F)cc2)c2ccc(F)cc21 (stereo unspecified) — higher, 198 °C
- O=[N+]([O-])c1ccc(O)c(-c2ccsc2)c1 — lower, 130 °C
- O=C1Cc2cc(CCN3CCN(c4nsc5ccccc45)CC3)c(Cl)cc2N1 — higher, 218 to 220 °C
- CCN(CC)CCOc1ccc(N(C(=O)Nc2ccccc2)C2=NN(c3ccccc3)CC2)cc1 — lower, 140 to 141 °C
- O=C(c1ccc2ccccc2n1)N1CCN=C1Nc1c(Cl)cccc1Cl — higher, 194 to 196 °C
- Cc1noc(NS(=O)(=O)c2ccccc2-c2ccc(-c3ncco3)cc2CN(C)C(=O)c2ccc(F)cc2)c1C — lower, 125 to 135 °C
- O=C(c1ccc(F)cc1)N1CCCC(F)(c2nc(-c3ccc[nH]3)no2)C1 (stereo unspecified) — lower, 115 to 118 °C
- Cc1cc(Cl)c(OCCO)cc1Nc1nnc2n1[C@H](c1ccc(F)cc1)COC2 — lower, 161 to 162 °C
- CC(=O)NC(NC(=O)c1cc(C)cc(C)c1)C(N)=O (stereo unspecified) — higher, 244 to 245 °C
- CSc1nc(O)c(C#N)n1C(C)C — higher, 196 to 198 °C
- CSc1nccc(-c2c(-c3ccc(F)cc3)ncn2C2CCN(C)CC2)n1 — not separable, 181 to 182 °C
- CN1C2CCC1CC(c1c[nH]c3cc(F)ccc13)C2 (stereo unspecified) — lower, 168 to 169 °C
- CC(C)C(O)(CCc1ccc(OCc2ccccc2)cc1)CC(=O)O (stereo unspecified) — lower, 97 to 98 °C
- COc1ccc2cc(Br)sc2c1 — lower, 62 °C
- OCC1CC(O)C(n2c(Br)nc3cc(Cl)c(Cl)cc32)C1 (stereo unspecified) — higher, 218 to 220 °C
- Cc1ccc(Sc2ccccc2CN(C)C)c([N+](=O)[O-])c1 — lower, 109 to 111 °C
- CC(=O)OCc1nc([N+](=O)[O-])c(C#N)n1C — lower, 92 to 93 °C
- c1ccc(-c2cnc3c(c2)nnc2cncn23)cc1 — higher, 225 to 227 °C
- CCOC(=O)N1CCCC(Nc2nc3cncnc3n2Cc2ccc(F)cc2)CC1 (stereo unspecified) — lower, 157 °C
- COc1ccc(Nc2c([N+](=O)[O-])ccc(Cl)c2C(=O)O)cc1Cl — higher, 222 to 228 °C
- C1=Cn2cnnc2Cc2ccsc21 — lower, 146 °C
- COc1cc(OC)c(S(C)(=O)=O)cc1C(=O)NCC1CCCN1C1CCCC1 (stereo unspecified) — higher, 198 °C
- FC(F)Oc1n[nH]cc1-c1ccccc1 — lower, 125 °C
- O=[N+]([O-])c1ccc2[nH]cc(C3=CCNCC3F)c2c1 (stereo unspecified) — higher, 205 to 207 °C
- COc1cc(C=CC(=O)c2ccc(-c3cccs3)s2)ccc1O — lower, 166 to 168 °C
- O=C(O)CCCc1cc(-c2ccccc2)nc2ccccc12 — lower, 125 °C
- CCO[C@@H]1C[C@@H](C(=O)NC)N(S(=O)(=O)c2ccc(Cl)c(COc3cccc4c(-n5ccnc5)cc(C)nc34)c2Cl)C1 — lower, 80 °C
- [N-]=[N+]=NCc1ccc(C(=O)c2ccc(Cl)cc2)c(Cl)c1 — lower, 33 to 33.5 °C
- COC(=O)c1ccc(Cc2cn(C/C=C/c3ccc4ccc(Cl)cc4n3)c3ccc([N+](=O)[O-])cc23)c(OC)c1 — lower, 158 to 160 °C
- CC(CCCc1ccccc1)c1cc2oc(=O)c3c(c2cc1O)C(=O)CCC3 (stereo unspecified) — higher, 200 to 202 °C
- CNc1cc(N2CCN(C(=O)N3CCN(S(=O)(=O)c4ccc(Br)cc4)CC3)CC2)ncn1 — higher, 219 to 221 °C
- COc1cccc2nc(-c3cc(C)c(OCCN4CCCC4)c(C)c3)[nH]c(=O)c12 — lower, 157 to 158 °C
- CCOc1nn(-c2ccc(C(F)(F)F)cn2)cc1CCCOc1ccc(CCC(=O)O)cc1OCc1ccccc1 — lower, 115 to 116 °C
- O=C(O)c1ncn(C(c2ccccc2)c2ccccc2)c1C(=O)O — higher, 194 °C
- c1ccc(-c2ncc(-c3cnc(-c4ccccc4)o3)cn2)cc1 — higher, 228 to 231 °C
- O=Cc1cccc2ccc(-c3ccccc3)nc12 — lower, 100 to 102 °C
- COc1ccc(Nc2nc(Cl)nc(OCC3CCCCC3)n2)cc1F — lower, 98 °C
- CC1CCc2ccc(C#N)c3c(=O)c(C(=O)O)cn1c23 (stereo unspecified) — higher, > 300 °C
- CCCn1c(=O)c2[nH]cnc2n(-c2ccc(Cl)cc2)c1=O — higher, 233 to 234 °C
- CC1=Nc2ccccc2CC(c2ccc(C)s2)N1C (stereo unspecified) — lower, 139 to 140 °C
- CC(=O)NC(=S)c1nc2cc(Cl)c(Cl)cc2n1S(=O)(=O)N(C)C — lower, 172 to 173 °C
- C[C@@H]1CCCN1CCCOc1ccc(C(=O)Cc2ccccn2)cc1 — lower, 40 to 42 °C
- CC(C)(C)OC(=O)Nc1ccncc1N — lower, 124 to 126 °C
- CN1CCC(=C2c3cc(Br)n(C)c3CCn3ccnc32)CC1 — lower, 179 °C
- C#CCOc1cc(C=O)cc(Cl)c1OCC#C — lower, 64 to 65 °C
- O=C(NCCSCc1ccccc1)c1ccccc1 — lower, 65 to 67 °C
- O=C1c2ccccc2C(=O)N1CC1CCC2CN(c3ccccn3)CCN2C1 (stereo unspecified) — lower, 167 to 168 °C
- Nc1cc(F)c(F)cc1C(=O)c1ccccc1 — lower, 100 to 101 °C
- O=C1CN(NC(=O)Sc2ccccc2)C(=O)N1 — lower, 152 to 155 °C
- C=CC(=O)OCCOc1ccc(-c2cccc(F)c2F)cc1 — lower, 47.4 to 50.1 °C
- C=CCO[C@@H]1C[C@H]2[C@H](C(=O)O)[C@H]2[C@]1(N)C(=O)O — higher, > 250 °C
- CC=CC(c1ccc2c(c1)nnn2C)n1ccnc1 (stereo unspecified) — lower, 104 °C
- CCCn1c(=O)c2nc([C@@H]3CCC[C@H]3c3ccccc3)[nH]c2n(CCC)c1=O (relative stereo) — lower, 152 to 153 °C
- CCCCc1oc2ccccc2c1C(=O)N(C)Cc1ccc2c(Br)c(OCc3nnn[nH]3)ccc2c1 — higher, 190 to 194 °C
- N#CC(C(=O)Nc1ccccc1)C(=O)c1nn(-c2ccccc2)c2c1CSc1ccc(C(=O)NCC(=O)O)cc1-2 (stereo unspecified) — higher, 244 to 250 °C
- O=C1CCCC(Sc2ccccc2)C(c2ccccc2)O1 (stereo unspecified) — lower, 166 °C
- C=C1CN(S(=O)(=O)c2ccc(C)cc2)CCCN(Cc2ccccc2)CCCN(S(=O)(=O)c2ccc(C)cc2)C1 — lower, 156 to 158 °C
- FC(F)(F)c1cc(C(F)(F)F)n2nc(SCc3ccccc3)nc2n1 — lower, 78.5 to 80.5 °C
- Nc1nc(-c2cc(-c3c(F)cccc3Cl)no2)cs1 — lower, 168 to 169 °C
- OC1(c2ccc(Cl)nc2)CCCC1 — lower, 92 to 93 °C
- O=C1c2ccccc2C(=O)N1Cn1nnn(-c2ccccc2)c1=S — lower, 130 to 134 °C
- CC(C)c1cccc(C(C)C)c1NC(=O)CN1CCN(CCSc2nc3cccc(-c4cc[nH]n4)c3o2)CC1 — not separable, 181 to 183 °C
- CC(=O)Nc1ccc(C(C)(C)C)cc1[N+](=O)[O-] — lower, 109 to 110 °C
- COc1ccc(-c2cc(=O)cc(N3CCOCC3)s2)cc1 — higher, 199 to 200 °C
- COc1cc2nc(CSc3ncnc4[nH]cnc34)n(-c3ccccc3Cl)c(=O)c2cc1OC — lower, 160 to 180 °C
- Nn1c(C2CCCCC2)nnc(-c2ccccc2)c1=O — lower, 178 to 180 °C
- NC(=N[N+](=O)[O-])NCCSCc1csc(NC(N)=NCC(F)(F)Cl)n1 — lower, 112 to 116 °C
- BrCc1ccc(CCc2ccccc2)cc1 — lower, 52 to 53 °C
